Laboratory results published in ChEMBL document CHEMBL3132762, “The effect of a thieno[2,3-b]pyridine PLC- inhibitor on the proliferation, morphology, migration and cell cycle of breast cancer cells” (Medchemcomm, 2014).
Activity calls are given as the source filed them. The calls are words filed in the database; no cut-off is given here.

Columns and labels:
T47D [1] = test: Cell cycle arrest in human T47D cells assessed as cell accumulation at S phase at 1 uM after 16 to 24 hrs by flow cytometry; assay type: functional, cell-based
MDA-MB-468 [2] = test: Cell cycle arrest in human MDA-MB-468 cells assessed as cell shifting from dominant G0/G1 phases to G2/M phases at 1 uM after 16 to 24 hrs by flow cytometry; assay type: functional, cell-based
[3] = Inhibition of ER-positive human TamC3 cell proliferation assessed as [3H]thymidine incorporation into DNA helix after 3 days by betaplate counting analysis; assay type: functional, cell-based
MDA-MB-468 [4] = test: Cell cycle arrest in human MDA-MB-468 cells assessed as cell accumulation at S phase at 1 uM after 16 to 24 hrs by flow cytometry; assay type: functional, cell-based
MDA-MB-231 [5] = test: Inhibition of oestrogen, progesterone and HER2/neu receptor triple negative human MDA-MB-231 cell proliferation assessed as [3H]thymidine incorporation into DNA helix after 3 days by betaplate counting analysis; assay type: functional, cell-based
T47D [6] = test: Inhibition of ER-positive human T47D cell proliferation assessed as [3H]thymidine incorporation into DNA helix after 3 days by betaplate counting analysis; assay type: functional, cell-based
[7] = Inhibition of ER-positive human TamR6 cell proliferation assessed as [3H]thymidine incorporation into DNA helix after 3 days by betaplate counting analysis; assay type: functional, cell-based
[8] = Inhibition of ER-positive human TamC6 cell proliferation assessed as [3H]thymidine incorporation into DNA helix after 3 days by betaplate counting analysis; assay type: functional, cell-based
MDA-MB-231 [9] = test: Reduction in red fluorescent mKATE2 labelled human MDA-MB-231 cell number at 1 uM after 24 hrs by fluorescent microscopic analysis; assay type: ADME, cell-based; conditions: mda-mb-231, 24 h
[10] = Inhibition of ER-positive human TamR7 cell proliferation assessed as [3H]thymidine incorporation into DNA helix after 3 days by betaplate counting analysis; assay type: functional, cell-based
T47D [11] = test: Cell cycle arrest in human T47D cells assessed as cell shifting from dominant G0/G1 phases to G2/M phases at 1 uM after 16 to 24 hrs by flow cytometry; assay type: functional, cell-based
MCF7 [12] = test: Cell cycle arrest in human MCF7 cells assessed as cell shifting from dominant G0/G1 phases to G2/M phases at 1 uM after 16 to 24 hrs by flow cytometry; assay type: functional, cell-based
MDA-MB-435 = test: Inhibition of oestrogen, progesterone and HER2/neu receptor triple negative human MDA-MB-435 cell proliferation assessed as [3H]thymidine incorporation into DNA helix after 3 days by betaplate counting analysis; assay type: functional, cell-based
BT-20 = test: Inhibition of oestrogen, progesterone and HER2/neu receptor triple negative human BT20 cell proliferation assessed as [3H]thymidine incorporation into DNA helix after 3 days by betaplate counting analysis; assay type: functional, cell-based
HBL-100 = test: Inhibition of oestrogen, progesterone and HER2/neu receptor triple negative human HBL100 cell proliferation assessed as [3H]thymidine incorporation into DNA helix after 3 days by betaplate counting analysis; assay type: functional, cell-based
MDA-MB-231 [13] = test: Induction of morphological changes in red fluorescent labelled human MDA-MB-231 cells assessed as rounded-up cells after 16 hrs by microscopic analysis; assay type: functional, cell-based
MDA-MB-453 = test: Inhibition of oestrogen, progesterone and HER2/neu receptor triple negative human MDA-MB-453 cell proliferation assessed as [3H]thymidine incorporation into DNA helix after 3 days by betaplate counting analysis; assay type: functional, cell-based
MDA-MB-436 = test: Inhibition of oestrogen, progesterone and HER2/neu receptor triple negative human MDA-MB-436 cell proliferation assessed as [3H]thymidine incorporation into DNA helix after 3 days by betaplate counting analysis; assay type: functional
MCF7 [14] = test: Inhibition of ER-positive human MCF7 cell proliferation assessed as [3H]thymidine incorporation into DNA helix after 3 days by betaplate counting analysis; assay type: functional, cell-based
MDA-MB-468 [15] = test: Inhibition of oestrogen, progesterone and HER2/neu receptor triple negative human MDA-MB-468 cell proliferation assessed as [3H]thymidine incorporation into DNA helix after 3 days by betaplate counting analysis; assay type: functional, cell-based
MDA-MB-231 [16] = test: Inhibition of red fluorescent mKATE2 labelled human MDA-MB-231 cell migration assessed as displacement of wound edges at 1 uM after 24 hrs by wound healing assay; assay type: functional; conditions: MDA-MB-231, 24 h
[17] = Inhibition of ER-positive human TamR3 cell proliferation assessed as [3H]thymidine incorporation into DNA helix after 3 days by betaplate counting analysis; assay type: functional, cell-based
MDA-MB-231 [18] = test: Cell cycle arrest in human MDA-MB-231 cells assessed as cell shifting from dominant G0/G1 phases to G2/M phases at 1 uM after 16 to 24 hrs by flow cytometry; assay type: functional, cell-based
SK-BR-3 = test: Inhibition of HER2-overexpressing human SKBR3 cell proliferation assessed as [3H]thymidine incorporation into DNA helix after 3 days by betaplate counting analysis; assay type: functional, cell-based
MCF7 [19] = test: Cell cycle arrest in human MCF7 cells assessed as cell accumulation at S phase at 1 uM after 16 to 24 hrs by flow cytometry; assay type: functional, cell-based
MDA-MB-231 [20] = test: Cell cycle arrest in human MDA-MB-231 cells assessed as cell accumulation at S phase at 1 uM after 16 to 24 hrs by flow cytometry; assay type: functional, cell-based
[21] = Inhibition of ER-positive human KPL1 cell proliferation assessed as [3H]thymidine incorporation into DNA helix after 3 days by betaplate counting analysis; assay type: functional, cell-based; conditions: KPL-1
MDA-MB-231 [22] = test: Growth inhibition of human MDA-MB-231 cells after 3 days by DAPI staining; assay type: functional; conditions: MDA-MB-231, 72 h
MDA-MB-231 [23] = test: Induction of morphological changes in red fluorescent labelled human MDA-MB-231 cells assessed as rounded-up cells at 6.25 to 1000 nM after 16 hrs by microscopic analysis; assay type: functional, cell-based

Question: For Nc1c(C(=O)Nc2cccc(Cl)c2)sc2nc3c(cc12)C(=O)CCC3, which Activity (T47D [1]) is on record?
Answer: inactive

Question: What about the Activity (MDA-MB-468 [2]) of the same molecule?
Answer: Active

Question: And the IC50 [3]?
Answer: 122 nM

Question: What about the Activity (MDA-MB-468 [4]) of the same molecule?
Answer: inactive

Question: And the IC50 (MDA-MB-231 [5])?
Answer: 357 nM

Question: And the IC50 (T47D [6])?
Answer: 570 nM

Question: And the IC50 [7]?
Answer: 105 nM

Question: What about the IC50 [8] of the same molecule?
Answer: 102 nM

Question: What about the Activity (MDA-MB-231 [9]) of the same molecule?
Answer: Toxic

Question: What about the IC50 [10] of the same molecule?
Answer: 154 nM

Question: And the Activity (T47D [11])?
Answer: Active

Question: And the Activity (MCF7 [12])?
Answer: Active

Question: What about the IC50 (MDA-MB-435) of the same molecule?
Answer: 77 nM

Question: And the IC50 (BT-20)?
Answer: 194 nM

Question: What about the IC50 (HBL-100) of the same molecule?
Answer: 265 nM

Question: And the Activity (MDA-MB-231 [13])?
Answer: Active

Question: And the IC50 (MDA-MB-453)?
Answer: 186 nM

Question: And the IC50 (MDA-MB-436)?
Answer: 157 nM

Question: What about the IC50 (MCF7 [14]) of the same molecule?
Answer: 125 nM

Question: And the IC50 (MDA-MB-468 [15])?
Answer: 163 nM

Question: What about the inhibition at 1 µM (MDA-MB-231 [16]) of the same molecule?
Answer: 50%

Question: And the IC50 [17]?
Answer: 120 nM

Question: And the Activity (MDA-MB-231 [18])?
Answer: Active

Question: And the IC50 (SK-BR-3)?
Answer: 138 nM

Question: What about the Activity (MCF7 [19]) of the same molecule?
Answer: inactive

Question: And the Activity (MDA-MB-231 [20])?
Answer: inactive

Question: What about the IC50 [21] of the same molecule?
Answer: 106 nM

Question: With CC(=O)Nc1cccc(-n2c(=O)n(C3CC3)c(=O)c3c(Nc4ccc(I)cc4F)n(C)c(=O)c(C)c32)c1 [TRAMETINIB] as the molecule, how does the GI50 (MDA-MB-231 [22]) read?
Answer: 25 nM

Question: What about the Activity (MDA-MB-231 [23]) of the same molecule?
Answer: inactive
